Source: US20130244879A1, “USE OF LIPO-CHITOOLIGOSACCHARIDES TO INITIATE EARLY FLOWERING AND FRUIT DEVELOPMENT IN PLANTS AND RELATED METHODS AND COMPOSITIONS” (NOVOZYMES BIOLOGICALS HOLDING A/S, priority 2003, published 2013)

Key:
Type in all cases: in vivo
[1] = system: Impatiens; assay: Experiment 5: foliar application of LCO to bedding plants (Impatiens)
From the text: This is a growth room study. Seeds of garden plant species were selected on the basis of seed-purchase popularity (Norseco, Montreal), grown in trays of Pro-Mix (NB. trademarked name) Seeding Medium, and at some size were transplanted into trays of 36 and 32 wells containing the same medium. Growth proceeded under lights in the growth room. Some 2 weeks before expected flowering, 16 young plants were sprayed with each of various levels of LCO leaving control plants untreated. The results are presented in Table 5A on bud formation and where possible opened flowers.

[2] = system: Tomato; assay: Experiment 6: foliar application of LCO at variable growth stages, field tomato; design: Fruit # % vs. control / % of weight vs. control: concentration or dose not given beside the values
From the text: Tomato seedlings (6-leaf stage) were transplanted in farmland. The plants were watered on the day that they were transplanted and whenever the soil was very dry during the season. Fertilizer (20-20-20) was applied at 250 kg/ha to the tomato field before transplantation. All tomato plants were supported by sticks when they were heavily loaded with fruit. Fruit yield (in the table) was finally cumulated at the end of the season.

[3] = system: grain corn (cv. DK376); assay: Experiment 9: effect of LCO on grain corn yield
From the text: Fertilizer (36-12-18) was applied to the corn field at a rate of 500 kg/ha before seeding. A machine planter was employed to plant the grain (cv. DK376, HU2650, Fludioxnil coated). To protect corn ears from bird damage, grain corn ears in the middle two rows were covered with plastic nets after silking. LCO was applied to corn plants at a rate of 200 L/ha for the first application 40 days after planting and at 400 L/ha for the second application 58 days after planting. The two protected middle rows of plants were harvested by a combine 152 days after planting. […] The total grain yield increased for all but the 10^−8M double application.

[4] = system: hot pepper; assay: Experiment 17: effect of LCO on hot pepper flowering and fruiting; conditions: for increased early flowers over control: at 5 weeks; for increased number of early fruits over control: in 5 weeks
Procedure: 30-day old seedlings were transplanted into 5″ pots and 20 days later (20 DAT) plants received the first LCO spray at 2 ml/plant (50 ng/plant). The 2nd spray was conducted 3 weeks (41 DAT) after the first. Data was collected 5 weeks (55 DAT) after the first LCO application. […]

[5] = LCO applied 10 + 20 + 30 + 40 + 50 DATP
[6] = LCO applied 10 + 20 + 30 + 40 DATP

Substance: Lipo-chitooligosaccharides [LCO]
- Total Number of Impatiens buds ([1]; 20 ml/16 plants of 10^−7M LCO): 71
- Total Number of Impatiens buds ([1]; 20 ml/16 plants of 10^−8M LCO): 65
- Total Number of Impatiens buds ([1]; 20 ml/16 plants of 10^−9M LCO): 85
- Total Number of Impatiens buds ([1]; 50 ml/16 plants of 3 × 10^−8M LCO): 66
- % of weight vs. control [2, 5]: 27.8%
- Average Weight (g/fruit) [2, 5]: 126.8 g/fruit
- Fruit # % vs. control [2, 5]: 38.41%
- Fruit on 24 plants [2, 5]: 1373a
- Weight (kg) per 24 plants [2, 5]: 174.07a kg
- % of weight vs. control [2, 6]: 12.0%
- Average Weight (g/fruit) [2, 6]: 128.0 g/fruit
- Fruit # % vs. control [2, 6]: 20.06%
- Fruit on 24 plants [2, 6]: 1191abc
- Weight (kg) per 24 plants [2, 6]: 152.50ab kg
- % of weight vs. control ([2]; LCO applied 10 + 20 + 30 DATP): 18.9%
- Average Weight (g/fruit) ([2]; LCO applied 10 + 20 + 30 DATP): 126.3 g/fruit
- Fruit # % vs. control ([2]; LCO applied 10 + 20 + 30 DATP): 29.23%
- Fruit on 24 plants ([2]; LCO applied 10 + 20 + 30 DATP): 1282ab
- Weight (kg) per 24 plants ([2]; LCO applied 10 + 20 + 30 DATP): 161.89ab kg
- % of weight vs. control ([2]; LCO applied 10 + 20 DATP): 12.7%
- Average Weight (g/fruit) ([2]; LCO applied 10 + 20 DATP): 136.4 g/fruit
- Fruit # % vs. control ([2]; LCO applied 10 + 20 DATP): 13.41%
- Fruit on 24 plants ([2]; LCO applied 10 + 20 DATP): 1125bc
- Weight (kg) per 24 plants ([2]; LCO applied 10 + 20 DATP): 153.43ab kg
- % of weight vs. control ([2]; LCO applied 10 DATP (7/4)): 10.8%
- Average Weight (g/fruit) ([2]; LCO applied 10 DATP (7/4)): 118.2 g/fruit
- Fruit # % vs. control ([2]; LCO applied 10 DATP (7/4)): 28.63%
- Fruit on 24 plants ([2]; LCO applied 10 DATP (7/4)): 1276ab
- Weight (kg) per 24 plants ([2]; LCO applied 10 DATP (7/4)): 150.88ab kg
- % of weight vs. control ([2]; LCO applied 20 DATP (7/15)): 20.3%
- Average Weight (g/fruit) ([2]; LCO applied 20 DATP (7/15)): 130.0 g/fruit
- Fruit # % vs. control ([2]; LCO applied 20 DATP (7/15)): 27.02%
- Fruit on 24 plants ([2]; LCO applied 20 DATP (7/15)): 1260ab
- Weight (kg) per 24 plants ([2]; LCO applied 20 DATP (7/15)): 163.78ab kg
- % of weight vs. control ([2]; LCO applied 30 DATP (7/25)): 17.6%
- Average Weight (g/fruit) ([2]; LCO applied 30 DATP (7/25)): 133.5 g/fruit
- Fruit # % vs. control ([2]; LCO applied 30 DATP (7/25)): 20.87%
- Fruit on 24 plants ([2]; LCO applied 30 DATP (7/25)): 1199abc
- Weight (kg) per 24 plants ([2]; LCO applied 30 DATP (7/25)): 160.11ab kg
- % of weight vs. control ([2]; LCO applied 40 DATP (8/8)): 14.5%
- Average Weight (g/fruit) ([2]; LCO applied 40 DATP (8/8)): 118.3 g/fruit
- Fruit # % vs. control ([2]; LCO applied 40 DATP (8/8)): 32.86%
- Fruit on 24 plants ([2]; LCO applied 40 DATP (8/8)): 1318ab
- Weight (kg) per 24 plants ([2]; LCO applied 40 DATP (8/8)): 155.89ab kg
- % of weight vs. control ([2]; LCO applied 50 DATP (8/18)): 13.6%
- Average Weight (g/fruit) ([2]; LCO applied 50 DATP (8/18)): 138.7 g/fruit
- Fruit # % vs. control ([2]; LCO applied 50 DATP (8/18)): 12.40%
- Fruit on 24 plants ([2]; LCO applied 50 DATP (8/18)): 1115bc
- Weight (kg) per 24 plants ([2]; LCO applied 50 DATP (8/18)): 154.62ab kg
- increased fruit number compared to untreated control ([2]; best of 9 treatments): up to 38.4%
- increased total fruit weight compared to untreated control ([2]; best of 9 treatments): up to 27.8%
- Dry Yield (kg/2 rows) ([3]; 10^−7M once): 3.44 kg/2 rows
- Dry yield (kg/ha) ([3]; 10^−7M once): 5730.6 kg/ha
- Ears/2 rows ([3]; 10^−7M once): 37.25ab
- Fresh Yield (kg/2 rows) ([3]; 10^−7M once): 4.40 kg/2 rows
- Fresh Yield (kg/ha) ([3]; 10^−7M once): 7333.3 kg/ha
- Dry Yield (kg/2 rows) ([3]; 10^−7M twice): 3.96 kg/2 rows
- Dry yield (kg/ha) ([3]; 10^−7M twice): 6606.5 kg/ha
- Ears/2 rows ([3]; 10^−7M twice): 40.00a
- Fresh Yield (kg/2 rows) ([3]; 10^−7M twice): 5.03 kg/2 rows
- Fresh Yield (kg/ha) ([3]; 10^−7M twice): 8383.3 kg/ha
- Dry Yield (kg/2 rows) ([3]; 10^−8M once): 3.62 kg/2 rows
- Dry yield (kg/ha) ([3]; 10^−8M once): 6040.4 kg/ha
- Ears/2 rows ([3]; 10^−8M once): 37.00ab
- Fresh Yield (kg/2 rows) ([3]; 10^−8M once): 4.57 kg/2 rows
- Fresh Yield (kg/ha) ([3]; 10^−8M once): 7616.7 kg/ha
- Dry Yield (kg/2 rows) ([3]; 10^−8M twice): 3.23 kg/2 rows
- Dry yield (kg/ha) ([3]; 10^−8M twice): 5387.1 kg/ha
- Ears/2 rows ([3]; 10^−8M twice): 32.25bc
- Fresh Yield (kg/2 rows) ([3]; 10^−8M twice): 4.12 kg/2 rows
- Fresh Yield (kg/ha) ([3]; 10^−8M twice): 6866.7 kg/ha
- Dry Yield (kg/2 rows) ([3]; 10^−9M once): 3.77 kg/2 rows
- Dry yield (kg/ha) ([3]; 10^−9M once): 6275.6 kg/ha
- Ears/2 rows ([3]; 10^−9M once): 39.00ab
- Fresh Yield (kg/2 rows) ([3]; 10^−9M once): 4.75 kg/2 rows
- Fresh Yield (kg/ha) ([3]; 10^−9M once): 7916.7 kg/ha
- Dry Yield (kg/2 rows) ([3]; 10^−9M twice): 3.57 kg/2 rows
- Dry yield (kg/ha) ([3]; 10^−9M twice): 5953.5 kg/ha
- Ears/2 rows ([3]; 10^−9M twice): 37.25ab
- Fresh Yield (kg/2 rows) ([3]; 10^−9M twice): 4.55 kg/2 rows
- Fresh Yield (kg/ha) ([3]; 10^−9M twice): 7583.3 kg/ha
- Ear number over untreated control ([3]; all treatments except the 10^−8M double application): significantly increased
- increased early flowers over control ([4]; double applications): ≤ 40%
- increased number of early fruits over control ([4]; double applications): ≤ 284%
- increased early flowers over control ([4]; single application): up to 5%
- increased number of early fruits over control ([4]; single application): up to 159%
